Active and inactive are the calls of the source.
Assays:
[1] = target: T1, Bifunctional epoxide hydrolase 2 (Homo sapiens) (UniProt P34913)
T1 sequence (whole entry): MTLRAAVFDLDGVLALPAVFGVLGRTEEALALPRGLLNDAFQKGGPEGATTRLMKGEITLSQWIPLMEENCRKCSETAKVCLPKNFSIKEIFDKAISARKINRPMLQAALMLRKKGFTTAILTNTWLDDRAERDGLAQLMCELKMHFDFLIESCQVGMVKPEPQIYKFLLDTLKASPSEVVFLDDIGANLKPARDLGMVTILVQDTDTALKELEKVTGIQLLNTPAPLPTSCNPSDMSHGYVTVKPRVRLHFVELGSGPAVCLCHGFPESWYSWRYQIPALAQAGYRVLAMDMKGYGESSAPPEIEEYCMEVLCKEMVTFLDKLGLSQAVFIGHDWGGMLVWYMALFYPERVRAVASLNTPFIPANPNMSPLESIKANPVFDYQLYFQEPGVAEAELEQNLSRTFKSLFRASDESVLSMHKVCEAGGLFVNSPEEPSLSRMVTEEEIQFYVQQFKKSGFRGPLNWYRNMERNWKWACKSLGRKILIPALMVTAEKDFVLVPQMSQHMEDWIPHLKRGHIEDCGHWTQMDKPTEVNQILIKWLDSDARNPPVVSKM
Description: Binding affinity to recombinant human C-terminal soluble epoxide hydrolase-hydrolase domain (222 to 555 residues) expressed in Escherichia coli BL21(DE3) assessed as change in melting temperature at 200 uM by SYPRO orange dye-based differential scanning fluorimetric analysis (Rvb = 57.0 +/- 0.0 degreeC)

[2] = target: T2, Bifunctional epoxide hydrolase 2 (Homo sapiens, UniProt P34913); assay: Inhibition of recombinant human full length soluble epoxide hydrolase (1 to 555 residues) expressed in Escherichia coli BL21(DE3) using non-fluorescent PHOME as substrate preincubated for 30 mins followed by substrate addition and measured after 30 mins by fluorescence based assay
T2 sequence (P34913 whole entry): T1 sequence (whole entry)

Rattus norvegicus = assay: Antiallodynic activity in streptozocin-induced Sprague-Dawley rat of diabetic neuropathy model assessed as increase in mechanical withdrawal threshold at 10 mg/kg administered via oral gavage and measured for 3 to 4 times at 1 min interval by von Frey assay; assay type: functional, organism-based
[3] = Metabolic stability in Sprague-Dawley rat liver microsomes at 10 uM preincubated for 5 mins followed by NADPH addition and measured for 60 mins by HPLC analysis; assay type: ADME, Microsome; conditions: read-out: Stability
[4] = target: Beta-1 adrenergic receptor (Homo sapiens, UniProt P08588); assay: Binding affinity to beta1 adrenergic receptor (unknown origin) by radioligand binding assay
[5] = target: Beta-2 adrenergic receptor (Homo sapiens, UniProt P07550); assay: Binding affinity to beta2 adrenergic receptor (unknown origin) by radioligand binding assay

SMILES | Tm [1] [°C] | IC50 ([2]; read-out: IC50) [nM] | Activity (Rattus norvegicus) | remaining at 1 h, 10 µM [3] [%] | Activity [4] | Activity [5] | IC50 [2] | Ki [4] [nM] | Ki [5] [nM]
CC(C)(C)N1CCOC(COc2ccc(NC(=O)NC3CCCCC3)cc2)C1 (configuration not stated) | 65.1 | 77 | Active | 71 | inactive | inactive |  |  | 
CC(C)NCC(O)COc1cccc2ccccc12 (configuration not stated) [PROPRANOLOL] | 56.3 |  |  | 37 |  |  | Not Active |  | 
CC(C)(C)NCC(O)COc1ccc(NC(=O)NC2CCCCC2)cc1 (configuration not stated) [TALINOLOL] |  |  |  | 86 |  |  |  | 240 | 900

Reference: ChEMBL document CHEMBL4304765 (ACS Med Chem Lett, 2019)
